# Measurements: patent US20150250782A1, “Methods and Compositions for Hypotensive Resuscitation” (Pharmazz, Inc., priority 2012, published 2015)
# Key:
# [1] = test system: α2 adrenergic receptors; experiment: Centhaquin resuscitation with and without α2 adrenergic antagonists: arterial blood hematocrit, pH, gases, electrolytes, lactate; format: in vivo, rat; conditions: hemorrhaged rats
# [2] = test system: rats in endotoxic shock; experiment: Endotoxic shock induced by E. coli LPS in rats; format: in vivo; conditions: 0.05 mg/kg after LPS 30 mg/kg iv; one rat, sacrificed at the end of experiment; vehicle rat died after 270 min
# Method: FIG. 14 illustrates the efficiency of a low dose of centhaquin citrate in the treatment of septic shock. In the tests summarized in FIG. 14, anaesthetized rats were immobilized on a surgical board and an incision was made above the femoral vein and artery. The vessels were cleaned and isolated. Heart rate and mean arterial pressure were measured by cannulating left femoral artery with pressure transducer SPR-320 (Millar Instruments), connected to a ML221 bridge amplifier (AD Instruments) through AEC-10C connector and the signals were acquired (1000 S^−) using PowerLab 16/30. Left femoral veins were secured for drug administration using PE 50 tubing (Clay Adams, Parsipanny, N.J.). Right femoral artery was cannulated for blood drawings using PE 50 tubing (Clay Adams, Parsipanny, N.J.). After completion of the surgery, animals were maintained in a steady state for 30 minutes before administration of Lipopolysaccharide (LPS). Endotoxic shock was induced by intravenous injection of E. coli LPS O111:B4 (Sigma Chemical, St. Louis, Mo.) dissolved to a concentration of 10 mg in 0.1 ml of normal saline and a dose of 30 mg/kg was administered. Resuscitation (R) was performed either with vehicle (saline) or with centhaquin citrate (0.05 mg/kg). The rat treated with vehicle has lower blood pressure compared to the rat treated with centhaquin. […]
# [3] = test system: urethane anesthetized rats; experiment: Cardiovascular effects in urethane anesthetized rats, centhaquin vs centhaquin citrate; format: in vivo, rat; conditions: 0.05, 0.15, 0.45 mg/kg; 60 minute period; mean blood pressure, pulse pressure, heart rate, cardiac output, stroke volume, stroke work
# Method: In these plots, centhaquin is tested as the free base in amounts of 0.05, 0.15, and 0.45 mg/kg. Similarly, centhaquin citrate dihydrate is tested in amounts of 0.05, 0.15, and 0.45 mg/kg. These amounts of centhaquin citrate are equivalent to 0.030, 0.089, and 0.267 mg/kg of centhaquin as the free base.
# [4] = test system: hemorrhaged rats; conditions: Gill, Pelit et al. 2011; cited from earlier work
compound,measurement,setting,value
"COC(=O)[C@@H]1[C@H]2C[C@H]3c4[nH]c5ccccc5c4CCN3C[C@@H]2CC[C@@H]1O [yohimbine, reference compound]",effect of the α2 adrenergic antagonist on the resuscitative effect of centhaquin,[1],completely blocked
Cc1cccc(N2CCN(CCc3ccc4ccccc4n3)CC2)c1.O=C(O)CC(O)(CC(=O)O)C(=O)O [centhaquin citrate],survival,[2],360 min
same,cardiovascular effects compared to centhaquin free base at same mg/kg dose,[3],substantially outperformed centhaquin free base
"CCC1(c2cnc[nH]2)Cc2ccccc2C1 [atipamezole, reference compound]",effect of the α2 adrenergic antagonist on the resuscitative effect of centhaquin,[1],completely blocked
N=C(N)NCCCCN [Agmatine],resuscitative effect,[4],effective resuscitation agent
same,resuscitative effect in presence of yohimbine,[4],completely blocked
